Patent publication US20090196942A1, “TOPICAL COMPOSITIONS CONTAINING CITRUS JABARA EXTRACT” (priority 2008, published 2009)

Tested on: rat basophil leukemia cells (line RBL-2H3)
Assay: Histamine release from calcium ionophore A23187-stimulated RBL-2H3 cells (Histamine ELISA)
Type: cell-based
Conditions: Calcium Ionophore 2 μM, supernatant histamine by ELISA
Method: Citrus Jabara extract was tested to determine its effectiveness in blocking histamine release. Histamine is released by skin and tissues in response to immune challenge. Ingredients that will block the release of histamine improve the soothing properties of skin care products into which they are incorporated. To perform the test, rat basophil leukemia cells (line RBL-2H3) were grown in Dulbecco's Modified Eagle Medium (DMEM) with 10% heat inactivated fetal calf serum, and seeded in 24 well plates at 2.5×10^5 cells/well. The cells were grown overnight and the culture media was removed from the wells and replaced with 1 ml of PIPES buffer (100 mM NaCl, 5 mM KCl, 0.4 mM MgCl2, 1 mM CaCl2, and 5.6 mM D-glucose), pH 7.2. This buffer is known to reduce the spontaneous release of histamine. Stock solutions were prepared: (1) Positive Control: A 10 mM stock solution of diosmetin in DMSO; (2) Active: Citrus Jabara powder—100 mg/ml in DMSO; (3) Calcium Ionophore: 2 mM in DMSO (Sigma Calcium Ionophore A23187). The Control was added to four separate wells varying the final concentration of the Control in each well to 1, 3, 10, and 30 μM. The Active was added to four other wells in varying percentage concentrations ranging from 0.01%, .05%, 0.1%, and 0.5% w/v in each plate. One well was left untreated with cells only. Another single well contained DMSO at a final concentration of less than 1% v/v. […]

## COc1ccc(-c2cc(=O)c3c(O)cc(O)cc3o2)cc1O [diosmetin]
  inhibition at 30 µM: 85%
